Data reported in article PMC8863071, “Functional Analysis of H^+-Pumping Membrane-Bound Pyrophosphatase, ADP-Glucose Synthase, and Pyruvate Phosphate Dikinase as Pyrophosphate Sources in Clostridium thermocellum” (Applied and Environmental Microbiology, 2022).

Biological target: T1, ADP-glucose synthase (Ags; ags1 ags2) (Acetivibrio thermocellus, UniProt A3DK82)
T1 construct: gene glgC; both subunits co-expressed untagged from pTrc99a (pTK30) in E. coli BL21; cell extract
T1 sequence (A3DK82 1-426): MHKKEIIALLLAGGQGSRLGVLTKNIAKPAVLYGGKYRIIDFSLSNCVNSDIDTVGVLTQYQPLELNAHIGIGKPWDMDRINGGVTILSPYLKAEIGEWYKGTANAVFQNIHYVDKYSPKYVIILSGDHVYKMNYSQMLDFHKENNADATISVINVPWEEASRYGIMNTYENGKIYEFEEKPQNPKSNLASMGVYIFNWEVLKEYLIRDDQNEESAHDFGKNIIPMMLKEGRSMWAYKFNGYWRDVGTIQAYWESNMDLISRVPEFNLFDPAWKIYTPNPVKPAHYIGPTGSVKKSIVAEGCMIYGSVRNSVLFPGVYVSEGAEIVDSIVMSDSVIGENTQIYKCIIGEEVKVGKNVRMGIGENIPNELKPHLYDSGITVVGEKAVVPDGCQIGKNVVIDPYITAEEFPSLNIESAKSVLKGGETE
T1 sequence (A3DK83 1-373 partner): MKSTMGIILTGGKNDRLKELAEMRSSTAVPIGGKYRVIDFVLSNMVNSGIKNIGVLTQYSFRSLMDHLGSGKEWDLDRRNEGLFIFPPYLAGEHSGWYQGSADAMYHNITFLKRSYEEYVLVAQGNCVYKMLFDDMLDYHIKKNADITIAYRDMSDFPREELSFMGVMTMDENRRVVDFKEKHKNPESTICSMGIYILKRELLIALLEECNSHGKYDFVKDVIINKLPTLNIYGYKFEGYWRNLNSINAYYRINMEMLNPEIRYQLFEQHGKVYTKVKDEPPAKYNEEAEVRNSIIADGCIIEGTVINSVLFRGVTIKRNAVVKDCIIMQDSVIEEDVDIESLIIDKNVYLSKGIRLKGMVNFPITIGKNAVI
Assay: coupled NADP+ assay, pyrophosphorolysis direction
Type: biochemical
Details: 1 mM ADP-glucose, 1 mM PPi, 4 mM MgCl2, 2 mM fructose-1,6-bisphosphate, pH 7.5, 55°C

For `Nc1ncnc2c1ncn2[C@@H]1O[C@H](COP(=O)(O)OP(=O)(O)O[C@H]2O[C@H](CO)[C@@H](O)[C@H](O)[C@H]2O)[C@@H](O)[C@H]1O` [ADP-glucose], the “coupled NADP+ assay, pyrophosphorolysis direction” value was “the activity was found to be ADP-glucose dependent”.
